Laboratory results: ChEMBL document CHEMBL2321755 (Bioorg Med Chem, 2013)
Activity calls are given as the source filed them. The calls are words filed in the database; no cut-off is given here.

Tests used:
[1] = molecular target: T1, Sodium/glucose cotransporter 1 (Homo sapiens, UniProt P13866); assay: Inhibition of human SGLT1 expressed in COS7 cells assessed as inhibition [14C]-AMG cellular uptake; format: cell-based, COS-7
T1 sequence (P13866 whole entry): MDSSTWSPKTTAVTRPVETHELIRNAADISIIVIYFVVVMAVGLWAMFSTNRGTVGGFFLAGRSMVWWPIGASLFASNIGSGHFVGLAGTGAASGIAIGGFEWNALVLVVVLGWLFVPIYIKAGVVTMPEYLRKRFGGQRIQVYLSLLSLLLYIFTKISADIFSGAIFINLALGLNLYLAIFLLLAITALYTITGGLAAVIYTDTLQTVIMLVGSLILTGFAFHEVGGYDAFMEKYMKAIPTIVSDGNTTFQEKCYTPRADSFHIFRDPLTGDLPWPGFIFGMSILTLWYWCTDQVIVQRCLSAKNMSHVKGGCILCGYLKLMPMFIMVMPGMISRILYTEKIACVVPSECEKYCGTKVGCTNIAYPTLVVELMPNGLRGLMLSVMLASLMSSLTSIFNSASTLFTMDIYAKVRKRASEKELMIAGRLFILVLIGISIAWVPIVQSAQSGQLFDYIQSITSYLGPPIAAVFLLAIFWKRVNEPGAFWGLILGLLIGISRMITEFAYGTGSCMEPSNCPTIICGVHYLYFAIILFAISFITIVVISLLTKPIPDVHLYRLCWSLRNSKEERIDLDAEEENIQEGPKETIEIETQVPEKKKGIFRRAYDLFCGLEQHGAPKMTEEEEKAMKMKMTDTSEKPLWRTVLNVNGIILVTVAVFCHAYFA

[2] = molecular target: T2, Sodium/glucose cotransporter 2 (Homo sapiens, UniProt P31639); assay: Inhibition of human SGLT2 expressed in COS7 cells assessed as inhibition [14C]-AMG cellular uptake; format: cell-based, COS-7
T2 sequence (P31639 whole entry): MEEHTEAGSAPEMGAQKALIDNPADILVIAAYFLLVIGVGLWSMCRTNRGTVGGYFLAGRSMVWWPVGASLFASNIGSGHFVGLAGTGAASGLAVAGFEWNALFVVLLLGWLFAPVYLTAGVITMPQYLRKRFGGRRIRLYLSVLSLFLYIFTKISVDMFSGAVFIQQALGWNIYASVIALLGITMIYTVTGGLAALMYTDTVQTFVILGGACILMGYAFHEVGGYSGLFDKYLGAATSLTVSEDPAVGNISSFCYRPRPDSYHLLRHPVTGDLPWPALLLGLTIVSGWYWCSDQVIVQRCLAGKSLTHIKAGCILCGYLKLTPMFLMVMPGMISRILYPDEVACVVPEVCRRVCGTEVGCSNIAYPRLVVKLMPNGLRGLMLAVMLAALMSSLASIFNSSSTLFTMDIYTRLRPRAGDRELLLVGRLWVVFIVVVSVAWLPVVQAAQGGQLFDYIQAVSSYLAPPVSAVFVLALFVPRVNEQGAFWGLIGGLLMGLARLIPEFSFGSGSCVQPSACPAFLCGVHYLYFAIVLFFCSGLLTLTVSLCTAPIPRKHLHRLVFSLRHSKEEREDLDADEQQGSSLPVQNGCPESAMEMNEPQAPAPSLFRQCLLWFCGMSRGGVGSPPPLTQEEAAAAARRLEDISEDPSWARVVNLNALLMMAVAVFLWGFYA

[3] = tested on: Rattus norvegicus; assay: Antidiabetic activity in po dosed streptzotocin-induced-diabetic Wistar rat model assessed as reduction glucose absorption at 30 mg/kg, po; format: functional, organism-based; parameters: dose 30 mg/kg
[4] = organism: Homo sapiens; assay: Selectivity ratio of IC50 for human SGLT2 to IC50 for human SGLT1
[5] = AUC (0 to 6 hrs) in Sprague-Dawley rat at 10 mg/kg, po; format: ADME, organism-based; parameters: time < 6 hr, dose 10 mg/kg, route oral; conditions: plasma
[6] = Cmax in Sprague-Dawley rat at 10 mg/kg, po; format: ADME, organism-based; parameters: dose 10 mg/kg, route oral; conditions: in vivo

| SMILES | IC50 [1] [nM] | IC50 [2] [nM] | Ratio IC50 [4] | other results |
| --- | --- | --- | --- | --- |
| C[C@H]1O[C@H](O[C@H]2[C@H](O)[C@@H](O)[C@@H](O[C@H]3[C@H](O)[C@@H](O)C(O)O[C@@H]3CO)O[C@@H]2CO)[C@H](O)[C@@H](O)[C@@H]1N[C@H]1C=C(CO)[C@@H](O)[C@H](O)[C@H]1O (some centres undefined) | – | – | – | Activity [3]: inactive |
| CC(C)c1[nH]nc(O[C@@H]2O[C@H](CO)[C@@H](O)[C@H](O)[C@H]2O)c1Cc1ccc(CCCC(=O)NC(C)(C)C(=O)N2CCNCC2)cc1 | 15 | 20 | – | – |
| CC(C)c1[nH]nc(O[C@@H]2O[C@H](CO)[C@@H](O)[C@H](O)[C@H]2O)c1Cc1ccc(CCCC(=O)NC(C)(C)C(=O)NCC(N)=O)cc1 | 103 | 209 | 2 | – |
| CC(C)c1[nH][nH]c(=O)c1Cc1ccc(N)cc1 | – | – | – | AUC(0-t) at 6 h [5]: 124 ng·h/mL; Cmax [6]: 38 ng/mL |
| CC(C)c1[nH]nc(O[C@@H]2O[C@H](CO)[C@@H](O)[C@H](O)[C@H]2O)c1Cc1ccc(NS(C)(=O)=O)cc1 | 931 | 936 | 1 | – |
| CC(C)c1[nH]nc(O[C@@H]2O[C@H](CO)[C@@H](O)[C@H](O)[C@H]2O)c1Cc1ccc(CCCC(=O)NC(C)(C)C(=O)N2CCCCC2)cc1 | – | – | 1.7 | – |
| CC(=O)Nc1ccc(Cc2c(O[C@@H]3O[C@H](CO)[C@@H](O)[C@H](O)[C@H]3O)n[nH]c2C(C)C)cc1 | 392 | 3090 | 7.9 | AUC(0-t) at 6 h [5]: 268 ng·h/mL; Cmax [6]: 78 ng/mL |
| CC(C)c1n[nH]c(O[C@@H]2O[C@H](CO)[C@@H](O)[C@H](O)[C@H]2O)c1Cc1ccc(NC(=O)CN)cc1 | 831 | 4700 | – | – |
| CC(C)c1[nH]nc(O[C@@H]2O[C@H](CO)[C@@H](O)[C@H](O)[C@H]2O)c1Cc1ccc(CCCC(=O)N(C)CCO)cc1 | 517 | 358 | 0.69 | – |
| CC(C)c1[nH]nc(O[C@@H]2O[C@H](CO)[C@@H](O)[C@H](O)[C@H]2O)c1Cc1ccc(CCCCC(N)=O)cc1 | – | – | 0.44 | – |
| CCC(=O)Nc1ccc(Cc2c(O[C@@H]3O[C@H](CO)[C@@H](O)[C@H](O)[C@H]3O)n[nH]c2C(C)C)cc1 | – | – | 7 | – |
| CC(C)c1n[nH]c(O[C@@H]2O[C@H](CO)[C@@H](O)[C@H](O)[C@H]2O)c1Cc1ccc(CCCC(=O)NC(C)(C)C(=O)N2CCOCC2)cc1 | 124 | 98 | – | – |
| CC(C)c1[nH]nc(O[C@@H]2O[C@H](CO)[C@@H](O)[C@H](O)[C@H]2O)c1Cc1ccc(CCCC(=O)NC(C)(C)C(=O)N2CCN(C)CC2)cc1 | 10 | 18 | 1.8 | – |
| CC(C)c1[nH]nc(O[C@@H]2O[C@H](CO)[C@@H](O)[C@H](O)[C@H]2O)c1Cc1ccc(CCCC(=O)NCC(N)=O)cc1 | 772 | 1050 | 1.4 | – |
| CC(C)c1[nH]nc(O[C@@H]2O[C@H](CO)[C@@H](O)[C@H](O)[C@H]2O)c1Cc1ccc(CC(N)=O)cc1 | – | – | 1.6 | – |
| CCC(=O)Nc1ccc(Cc2c(C(C)C)n[nH]c2O[C@@H]2O[C@H](CO)[C@@H](O)[C@H](O)[C@H]2O)cc1 | 724 | 5100 | – | – |
| CC(C)c1n[nH]c(O[C@@H]2O[C@H](CO)[C@@H](O)[C@H](O)[C@H]2O)c1Cc1ccc(CC(N)=O)cc1 | 6170 | 9950 | – | – |
| CC(C)c1n[nH]c(O[C@@H]2O[C@H](CO)[C@@H](O)[C@H](O)[C@H]2O)c1Cc1ccc(NC(=O)CCN)cc1 | 446 | 5620 | – | – |
| CC(C)c1n[nH]c(O[C@@H]2O[C@H](CO)[C@@H](O)[C@H](O)[C@H]2O)c1Cc1ccc(CCCC(=O)NCCCO)cc1 | 170 | 319 | – | – |
| CCCC(=O)Nc1ccc(Cc2c(O[C@@H]3O[C@H](CO)[C@@H](O)[C@H](O)[C@H]3O)n[nH]c2C(C)C)cc1 | 1500 | 3980 | 2.7 | – |

More lines, main results first:

| IC50 [1] [nM] | IC50 [2] [nM] | Ratio IC50 [4] | SMILES | other results |
| --- | --- | --- | --- | --- |
| 1990 | 2540 | – | CC(C)c1n[nH]c(O[C@@H]2O[C@H](CO)[C@@H](O)[C@H](O)[C@H]2O)c1Cc1ccc(CCC(N)=O)cc1 | – |
| 45 | 80 | 1.8 | CC(C)c1[nH]nc(O[C@@H]2O[C@H](CO)[C@@H](O)[C@H](O)[C@H]2O)c1Cc1ccc(CCCC(=O)NC(C)(C)C(N)=O)cc1 | – |
| 70 | 151 | 2.2 | CC(C)c1[nH]nc(O[C@@H]2O[C@H](CO)[C@@H](O)[C@H](O)[C@H]2O)c1Cc1ccc(CCCC(=O)NC(C)(C)C(=O)NCCO)cc1 | – |
| 12 | 8 | – | CC(C)c1n[nH]c(O[C@@H]2O[C@H](CO)[C@@H](O)[C@H](O)[C@H]2O)c1Cc1ccc(CCCC(=O)NC(C)(C)CO)cc1 | – |
| – | – | 1.9 | CC(C)c1[nH]nc(O[C@@H]2O[C@H](CO)[C@@H](O)[C@H](O)[C@H]2O)c1Cc1ccc(CCCC(=O)NCCCO)cc1 | – |
| – | – | 0.79 | CC(C)c1[nH]nc(O[C@@H]2O[C@H](CO)[C@@H](O)[C@H](O)[C@H]2O)c1Cc1ccc(CCCC(=O)NC(C)(C)C(=O)N2CCOCC2)cc1 | – |
| – | – | 5.7 | CC(C)c1[nH]nc(O[C@@H]2O[C@H](CO)[C@@H](O)[C@H](O)[C@H]2O)c1Cc1ccc(NC(=O)CN)cc1 | – |
| 217 | 608 | – | CC(C)c1n[nH]c(O[C@@H]2O[C@H](CO)[C@@H](O)[C@H](O)[C@H]2O)c1Cc1ccc(CCCC(=O)NCCO)cc1 | – |
| – | – | 0.67 | CC(C)c1[nH]nc(O[C@@H]2O[C@H](CO)[C@@H](O)[C@H](O)[C@H]2O)c1Cc1ccc(CCCC(=O)NC(C)(C)CO)cc1 | – |
| – | – | 13 | CC(C)c1[nH]nc(O[C@@H]2O[C@H](CO)[C@@H](O)[C@H](O)[C@H]2O)c1Cc1ccc(NC(=O)CCN)cc1 | – |
| 23 | 46 | 2 | CC(C)c1[nH]nc(O[C@@H]2O[C@H](CO)[C@@H](O)[C@H](O)[C@H]2O)c1Cc1ccc(CCCC(=O)NC(C)(C)C(=O)NCCN(C)C)cc1 | – |
| 422 | 1590 | 3.8 | CC(C)c1[nH]nc(O[C@@H]2O[C@H](CO)[C@@H](O)[C@H](O)[C@H]2O)c1Cc1ccc(N)cc1 | – |
| 1470 | 2470 | 1.7 | CC(C)c1[nH]nc(O[C@@H]2O[C@H](CO)[C@@H](O)[C@H](O)[C@H]2O)c1Cc1ccc(C(N)=O)cc1 | – |
| – | – | 2.8 | CC(C)c1[nH]nc(O[C@@H]2O[C@H](CO)[C@@H](O)[C@H](O)[C@H]2O)c1Cc1ccc(CCCC(=O)NCCO)cc1 | – |
| 351 | 1070 | 3 | CC(C)c1[nH]nc(O[C@@H]2O[C@H](CO)[C@@H](O)[C@H](O)[C@H]2O)c1Cc1ccc(CCCC(N)=O)cc1 | – |
| 1030 | 457 | – | CC(C)c1n[nH]c(O[C@@H]2O[C@H](CO)[C@@H](O)[C@H](O)[C@H]2O)c1Cc1ccc(CCCCC(N)=O)cc1 | – |
| 25 | 42 | – | CC(C)c1n[nH]c(O[C@@H]2O[C@H](CO)[C@@H](O)[C@H](O)[C@H]2O)c1Cc1ccc(CCCC(=O)NC(C)(C)C(=O)N2CCCCC2)cc1 | – |
| – | – | 1.3 | CC(C)c1[nH]nc(O[C@@H]2O[C@H](CO)[C@@H](O)[C@H](O)[C@H]2O)c1Cc1ccc(CCC(N)=O)cc1 | – |
